Test results as given in ChEMBL document CHEMBL1201862, “PubChem BioAssay data set” (2004).
Activity calls are given as the source filed them.

Experiments:
HeLa = experiment: HeLa cell cytotoxicity, dose response, cytotoxicity control, 24 h, cherry-picked samples (AID 504726); format: functional, cell-based; conditions: Homo sapiens;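 also: potency for cytotoxicity as loss of luminescence signal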
ORF 73 = molecular target: T1, ORF 73 (Human herpesvirus 8, UniProt O40947); experiment: inhibitors of C-LANA binding to LBS DNA, dose response, biochemical, fluorescence polarization, cherry-picked samples (AID 504725); design: species or system Human gammaherpesvirus 8;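 also: fluorescence polarization of a labeled DNA duplex reporting LANA DNA binding; potency is for inhibitors that block LANA binding to the DNA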
T1 sequence (O40947 whole entry): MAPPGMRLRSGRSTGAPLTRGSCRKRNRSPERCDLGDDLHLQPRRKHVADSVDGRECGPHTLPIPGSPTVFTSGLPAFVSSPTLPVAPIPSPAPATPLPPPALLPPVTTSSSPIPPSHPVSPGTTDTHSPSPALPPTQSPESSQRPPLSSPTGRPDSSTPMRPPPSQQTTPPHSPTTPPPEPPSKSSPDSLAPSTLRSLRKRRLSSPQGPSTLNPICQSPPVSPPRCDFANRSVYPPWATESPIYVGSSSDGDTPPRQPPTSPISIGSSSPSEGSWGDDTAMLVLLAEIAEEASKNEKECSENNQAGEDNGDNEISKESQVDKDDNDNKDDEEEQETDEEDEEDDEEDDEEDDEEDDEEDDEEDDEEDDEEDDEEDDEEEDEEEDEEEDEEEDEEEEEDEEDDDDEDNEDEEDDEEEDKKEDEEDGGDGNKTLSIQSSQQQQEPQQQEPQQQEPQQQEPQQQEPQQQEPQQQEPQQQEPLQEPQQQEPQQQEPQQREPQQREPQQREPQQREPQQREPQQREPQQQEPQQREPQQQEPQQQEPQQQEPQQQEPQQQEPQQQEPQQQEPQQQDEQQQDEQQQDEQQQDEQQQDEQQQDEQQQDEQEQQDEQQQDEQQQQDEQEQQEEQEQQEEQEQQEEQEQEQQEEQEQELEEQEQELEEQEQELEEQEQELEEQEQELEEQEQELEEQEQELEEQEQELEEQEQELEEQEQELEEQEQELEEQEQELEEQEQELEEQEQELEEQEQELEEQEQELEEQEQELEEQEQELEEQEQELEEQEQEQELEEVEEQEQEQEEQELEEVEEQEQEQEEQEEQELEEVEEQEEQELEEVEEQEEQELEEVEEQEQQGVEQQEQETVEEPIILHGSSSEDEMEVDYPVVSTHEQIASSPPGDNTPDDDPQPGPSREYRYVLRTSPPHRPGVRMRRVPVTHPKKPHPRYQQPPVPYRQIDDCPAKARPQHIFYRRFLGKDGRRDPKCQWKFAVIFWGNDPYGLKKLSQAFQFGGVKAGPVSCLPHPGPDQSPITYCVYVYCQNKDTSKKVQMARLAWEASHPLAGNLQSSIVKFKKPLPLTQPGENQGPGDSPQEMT

CHO = experiment: cytotoxicity in TLR9-MyD88 CHO cells, dose response, cytotoxicity control for TLR9-MyD88 binding inhibitor project, cell-based, luminescence (AID 588339); format: functional, hamster; conditions: Cricetulus griseus;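 also: CHO cells stably coexpressing TLR9 and MyD88 fusions from primary screen; compound exposure lasted 48 hours before viability readout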
Caspase-6 = molecular target: T2, Caspase-6 (Homo sapiens, UniProt P55212); experiment: human caspase-6 inhibitors, dose response, biochemical, VEID-R110 fluorescence, cherry-pick (AID 720632)
T2 sequence (P55212 whole entry): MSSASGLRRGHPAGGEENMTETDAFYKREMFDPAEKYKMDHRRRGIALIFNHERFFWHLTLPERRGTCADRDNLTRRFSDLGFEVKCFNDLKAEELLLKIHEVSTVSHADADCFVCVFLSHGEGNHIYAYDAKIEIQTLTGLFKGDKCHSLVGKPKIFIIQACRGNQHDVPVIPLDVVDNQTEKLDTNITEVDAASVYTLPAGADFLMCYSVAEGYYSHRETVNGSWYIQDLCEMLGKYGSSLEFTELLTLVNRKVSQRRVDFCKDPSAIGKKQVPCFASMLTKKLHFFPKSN

[1] = luciferase reporter signal reduction – luminescence, H4-C neuroglioblastoma cells, dose response (AID 2458); format: functional, cell-based;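 also: H4 neuroglioblastoma cells stably carrying a luciferase reporter gene fusion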
cells = format: functional, cell-based
[2] = Luminescence Cell-Based Dose Response HTS to Identify Inhibitors of 5'UTR Stem-Loop Driven Prion Protein mRNA Translation in H4 Neuroglioblastoma Cells. [Related pubchem assays: 1827 (Project Summary), 1813 (Primary HTS)]; format: functional
[3] = inhibitors of SNCA 5'UTR-driven reporter translation, confirmation, H4 neuroglioma cells, luminescence (AID 1988); format: functional, cell-based
[4] = Luminescence-based dose response cell-based high throughput screening assay for cytotoxic compounds using the IEC-6 intestinal epithelial cell line. [Related pubchem assays: 1858 (Summary AID.), 1825 (Counterscreen.), 1907 (Confirmation screen.)]; format: functional
[5] = inhibitors of SNCA 5'UTR-driven translation, confirmation, luminescence, H4 neuroglioblastoma cells, dose confirmation (AID 2454); format: functional, cell-based;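 also: H4 neuroglioblastoma cells carrying an alpha-synuclein 5'UTR luciferase reporter; potency for inhibition of the luciferase signal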
[6] = molecular target: Scavenger receptor class B member 1 (Mus musculus, UniProt Q61009); experiment: inhibitors of SR-BI mediated HDL lipid uptake, dose response, ldlA[mSR-BI] cells, fluorescence, cherry pick (AID 493194); format: functional, cell-based;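 also: cellular uptake of fluorescent DiI-labeled HDL measured as cell fluorescence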
[7] = cytotoxicity in HEK-293T cells, dose response, cytotoxicity control for TCR NF-kB inhibitor project, luminescence, T-cell screen hits (AID 489026); format: functional, cell-based;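 also: cells exposed to compound about 14 hours before the viability readout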
[8] = Shn3 3'UTR reporter inhibitors, dose response, cell-based, Clone20 osteoblasts, firefly luciferase, cherry-picked (AID 624132); format: functional;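 also: firefly luciferase luminescence from reporter carrying the Shn3 3'UTR in osteoblasts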
[9] = control 3'UTR Renilla luciferase suppression, dose response, counter-screen for Shn3 inhibitor project, cell-based, Clone20-Shn3RL, cherry-picked (AID 624133); format: functional
[10] = molecular target: T3, Neuropeptides B/W receptor type 1 (Homo sapiens, UniProt P48145); experiment: Fluorescence-based dose response cell-based high throughput screening assay to identify antagonists of the G-protein coupled receptor 7 (GPR7). [Related pubchem assays: 1952 (Screening assay (GPR7 antagonists).), 1880 (Summary AID.)]; format: functional
T3 sequence (P48145 whole entry): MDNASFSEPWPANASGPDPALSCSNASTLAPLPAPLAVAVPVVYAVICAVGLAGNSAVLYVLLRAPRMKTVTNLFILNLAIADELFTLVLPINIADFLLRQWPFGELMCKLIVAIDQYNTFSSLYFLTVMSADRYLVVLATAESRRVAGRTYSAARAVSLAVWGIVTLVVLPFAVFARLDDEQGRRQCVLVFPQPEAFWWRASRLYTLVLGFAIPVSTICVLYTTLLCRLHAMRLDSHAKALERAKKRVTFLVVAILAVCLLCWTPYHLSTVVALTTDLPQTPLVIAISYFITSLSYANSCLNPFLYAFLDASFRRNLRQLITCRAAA

[11] = molecular target: Melanin-concentrating hormone receptor 1 (Homo sapiens, UniProt Q99705); experiment: Fluorescence-based counterscreen for antagonists of the G-protein coupled receptor 7 (GPR7): cell-based high throughput dose response assay to identify antagonists of the melanin-concentrating hormone receptor 1 (MCHR1).; format: functional
[12] = molecular target: T4, G-protein coupled receptor 35 (Homo sapiens, UniProt Q9HC97); experiment: SAR analysis of Antagonists of the GPR35 Receptor using an Image-Based Assay - Set 5. [Related pubchem assays (depositor defined):AID2058, AID2079]; format: functional
[13] = molecular target: T4, G-protein coupled receptor 35; experiment: SAR Analysis for the identification of Selective Antagonists of ERK1/2 Activity in GPR35-Overexpressing U2OS Cells - Set 2. [Related pubchem assays (depositor defined):AID2058, AID2079]; format: functional, cell-based
[14] = molecular target: G-protein coupled receptor 55 (Homo sapiens, UniProt Q9Y2T6); experiment: SAR Analysis of Selective Antagonists of GPR55 using an Image-Based Assay - Set 3. [Related pubchem assays (depositor defined):AID2058, AID2079]; format: functional
[15] = molecular target: T4, G-protein coupled receptor 35; experiment: GPR35 antagonists blocking zaprinast-driven arrestin recruitment, primary screen, imaging, U2OS, beta-arrestin-GFP, zaprinast agonist (AID 2058); format: functional;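 also: antagonist potency meaning inhibition of agonist-induced arrestin redistribution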
[16] = molecular target: T5, Replicative DNA helicase DnaB (Mycobacterium tuberculosis, UniProt P9WMR3); experiment: DnaB intein splicing inhibitors, dose response, biochemical, cell-free fluorescence (AID 449749); format: functional
T5 sequence (P9WMR3 whole entry): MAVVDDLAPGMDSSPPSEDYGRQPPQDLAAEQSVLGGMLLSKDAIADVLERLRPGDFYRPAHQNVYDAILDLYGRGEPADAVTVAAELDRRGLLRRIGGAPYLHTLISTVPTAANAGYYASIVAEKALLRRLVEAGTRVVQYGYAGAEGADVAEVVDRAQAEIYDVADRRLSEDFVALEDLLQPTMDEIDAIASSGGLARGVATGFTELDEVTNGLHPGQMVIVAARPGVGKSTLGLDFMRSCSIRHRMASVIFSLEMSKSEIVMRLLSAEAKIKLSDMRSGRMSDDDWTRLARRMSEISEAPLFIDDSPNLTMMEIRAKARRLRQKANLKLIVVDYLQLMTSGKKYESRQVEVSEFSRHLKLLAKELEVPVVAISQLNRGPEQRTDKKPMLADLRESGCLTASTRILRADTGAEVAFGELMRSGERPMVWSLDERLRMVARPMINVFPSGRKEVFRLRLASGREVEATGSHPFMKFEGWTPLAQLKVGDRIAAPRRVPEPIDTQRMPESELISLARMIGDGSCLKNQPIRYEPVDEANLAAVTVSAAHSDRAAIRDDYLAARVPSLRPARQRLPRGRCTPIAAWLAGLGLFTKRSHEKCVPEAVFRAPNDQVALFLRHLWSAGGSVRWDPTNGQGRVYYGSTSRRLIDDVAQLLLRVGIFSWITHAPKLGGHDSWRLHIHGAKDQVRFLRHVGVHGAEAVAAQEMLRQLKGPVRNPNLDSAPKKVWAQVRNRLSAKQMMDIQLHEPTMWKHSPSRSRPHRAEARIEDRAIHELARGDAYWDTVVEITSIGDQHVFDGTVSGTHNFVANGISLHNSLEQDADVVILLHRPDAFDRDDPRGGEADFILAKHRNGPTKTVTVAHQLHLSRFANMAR

Protein RecA = molecular target: T6, Protein RecA (Mycobacterium tuberculosis, UniProt P9WHJ3); experiment: Fluorescence Cell-Free Homogeneous Dose Retest to Identify Inhibitors of RecA-Intein Splicing Activity. [Related pubchem assays (depositor defined):AID2097, AID2223, AID489010, AID492950]; format: functional
T6 sequence (P9WHJ3 whole entry): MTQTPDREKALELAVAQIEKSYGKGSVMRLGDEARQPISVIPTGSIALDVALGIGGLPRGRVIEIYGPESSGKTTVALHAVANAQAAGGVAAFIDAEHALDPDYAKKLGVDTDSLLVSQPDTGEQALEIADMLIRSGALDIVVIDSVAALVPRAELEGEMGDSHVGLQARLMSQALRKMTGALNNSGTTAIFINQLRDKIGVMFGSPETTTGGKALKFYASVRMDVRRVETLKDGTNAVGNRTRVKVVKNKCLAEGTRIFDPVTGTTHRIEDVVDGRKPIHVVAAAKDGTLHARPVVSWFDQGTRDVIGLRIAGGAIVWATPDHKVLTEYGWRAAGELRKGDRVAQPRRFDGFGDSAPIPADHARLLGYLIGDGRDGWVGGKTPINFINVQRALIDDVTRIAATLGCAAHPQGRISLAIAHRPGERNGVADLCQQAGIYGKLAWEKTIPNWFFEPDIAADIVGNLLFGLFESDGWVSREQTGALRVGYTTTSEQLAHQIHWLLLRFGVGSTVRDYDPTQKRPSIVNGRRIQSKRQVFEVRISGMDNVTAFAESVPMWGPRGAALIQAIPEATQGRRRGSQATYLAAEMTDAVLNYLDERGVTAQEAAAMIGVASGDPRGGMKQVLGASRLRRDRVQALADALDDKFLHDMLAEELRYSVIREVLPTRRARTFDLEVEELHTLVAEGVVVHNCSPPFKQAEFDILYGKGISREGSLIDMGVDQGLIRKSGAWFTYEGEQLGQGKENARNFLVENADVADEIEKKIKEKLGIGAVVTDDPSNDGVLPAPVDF

T4 sequence (Q9HC97 whole entry): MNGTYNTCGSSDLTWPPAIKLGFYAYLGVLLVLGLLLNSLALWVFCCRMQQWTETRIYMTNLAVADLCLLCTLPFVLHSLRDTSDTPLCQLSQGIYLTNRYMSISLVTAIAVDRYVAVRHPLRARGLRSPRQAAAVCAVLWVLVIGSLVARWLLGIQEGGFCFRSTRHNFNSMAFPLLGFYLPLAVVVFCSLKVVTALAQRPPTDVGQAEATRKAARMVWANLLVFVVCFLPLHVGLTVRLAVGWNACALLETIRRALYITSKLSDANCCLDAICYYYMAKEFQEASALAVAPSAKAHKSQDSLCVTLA
Chain of Scavenger receptor class B member 1 (Q61009 whole entry): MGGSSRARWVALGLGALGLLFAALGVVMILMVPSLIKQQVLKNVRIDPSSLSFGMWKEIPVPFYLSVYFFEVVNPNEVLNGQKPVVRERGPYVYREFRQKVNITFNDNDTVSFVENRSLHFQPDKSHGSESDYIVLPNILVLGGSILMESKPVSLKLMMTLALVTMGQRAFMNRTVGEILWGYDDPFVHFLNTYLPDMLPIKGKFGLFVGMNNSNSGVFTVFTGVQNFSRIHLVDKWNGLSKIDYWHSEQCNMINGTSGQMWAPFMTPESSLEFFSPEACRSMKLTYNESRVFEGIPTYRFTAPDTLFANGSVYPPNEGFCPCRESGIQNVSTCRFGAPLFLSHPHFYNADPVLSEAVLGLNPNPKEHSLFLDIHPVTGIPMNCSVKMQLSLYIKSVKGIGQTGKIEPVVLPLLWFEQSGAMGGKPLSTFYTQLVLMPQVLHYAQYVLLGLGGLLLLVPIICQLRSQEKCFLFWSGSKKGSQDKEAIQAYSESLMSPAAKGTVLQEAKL
Chain of G-protein coupled receptor 55 (Q9Y2T6 whole entry): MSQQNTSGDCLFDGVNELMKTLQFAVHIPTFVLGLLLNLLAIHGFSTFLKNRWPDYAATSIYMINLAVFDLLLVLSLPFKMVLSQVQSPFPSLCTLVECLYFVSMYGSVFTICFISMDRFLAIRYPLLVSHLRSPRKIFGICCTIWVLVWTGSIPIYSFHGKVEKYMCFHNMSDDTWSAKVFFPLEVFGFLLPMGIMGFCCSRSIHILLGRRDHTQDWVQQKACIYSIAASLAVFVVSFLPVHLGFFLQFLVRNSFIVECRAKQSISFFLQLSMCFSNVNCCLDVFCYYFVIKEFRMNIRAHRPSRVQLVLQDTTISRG
Chain of Melanin-concentrating hormone receptor 1 (Q99705 whole entry): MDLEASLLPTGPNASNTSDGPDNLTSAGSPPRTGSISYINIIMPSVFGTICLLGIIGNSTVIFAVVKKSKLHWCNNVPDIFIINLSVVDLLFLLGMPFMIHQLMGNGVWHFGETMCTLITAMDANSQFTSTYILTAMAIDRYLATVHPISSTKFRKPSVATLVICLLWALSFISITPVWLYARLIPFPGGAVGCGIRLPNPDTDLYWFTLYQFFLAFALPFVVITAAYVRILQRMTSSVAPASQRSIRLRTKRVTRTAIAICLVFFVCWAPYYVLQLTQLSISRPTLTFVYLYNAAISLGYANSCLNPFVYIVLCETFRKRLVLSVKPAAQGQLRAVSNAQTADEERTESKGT

SMILES: Cc1ccc(C(=O)O)cc1N1C(=O)c2cccc3c([N+](=O)[O-])ccc(c23)C1=O
- AC50 (HeLa): 67.1 µM (active)
- AC50 (ORF 73): 35 µM (active)
- IC50 (CHO): 22.4 µM (inactive)
- AC50 (Caspase-6): 10.3 µM (active)

SMILES: CCCCCOC(=O)c1[nH]c2c(c1C)C(=O)CC(c1ccco1)C2 (configuration not stated)
- EC50 [1]: 198 nM (active)
- EC50 (cells): 179 nM (active)
- EC50 [2]: 9.81 µM (active)
- EC50 [3]: < 100 nM (active)
- IC50 [4]: 101 nM (active)
- EC50 [5]: 133 nM (active)
- AC50 [6]: 33.3 µM (active)
- IC50 [7]: > 80 µM (inactive)
- AC50 [8]: 1.49 µM (active)
- AC50 [9]: 3.96 µM (active)

SMILES: Cc1ccccc1CN1C(=O)c2ccccc2Sc2ccc(C(=O)NCCCN3CCOCC3)cc21
- IC50 [10]: 8.23 µM (active)
- IC50 [11]: 12.1 µM (not active)

SMILES: COC(=O)c1cnn(-c2ccc(F)cc2F)c1/C=N/NC(=S)Nc1ccc(Cl)cc1
- IC50 [12]: 171 nM (active)
- IC50 [13]: 1.69 µM (active)
- IC50 [14]: > 32 µM (inactive)

SMILES: CC1(CC(=O)N/N=C/c2ccc(OCc3ccc(Cl)cc3Cl)cc2)OCCCO1
- IC50 [15]: < 500 nM (active)
- AC50 [16]: 3.09 µM (active)
- EC50 (Protein RecA): 11.1 µM (active)
